Measured values as given in patent US20240091248A1, “METHODS OF TREATING ACUTE MYELOID LEUKEMIA AND MANAGING CYTOPENIA” (GENENTECH, INC., priority 2021, published 2024).

How the values were obtained:
[1] = tested on: patients with acute myeloid leukemia (AML); test: measurable residual disease (MRD) response analysis of the phase 3 study; format: in vivo, human; details: p<0.001
Procedure: Methods: Enrolled patients were ≥18 years and unfit for intensive chemotherapy. Patients received Ven 400 mg orally; days 1-28 and Aza 75 mg/m^2; days 1-7/28-day cycle. Bone marrow aspirate samples for multiparametric flow cytometry assessments by integrated leukemia-associated immunophenotypes and different than normal procedures were collected for central analysis (Covance Central Laboratory Services) at baseline, end of cycle 1, and every 3 cycles thereafter. Assessments were performed independent of disease responses. MRD response was defined as <1 residual blast/1000 leukocytes (<10^−3). CRc, DoR, OS, and EFS were assessed. Disease assessments were per modified International Working Group response criteria for AML.

[2] = tested on: patients with acute myeloid leukemia (AML); test: venetoclax exposure versus overall survival in CR/CRh patients with post-remission cytopenia; format: in vivo, human; details: switched to 21-day dosing or remained on 28-day dosing, Cox proportional-hazards models
Mcl-1 = Mcl-1 (Homo sapiens, UniProt Q07820); details: cited from earlier work
Sequence of Mcl-1 (Q07820 whole entry): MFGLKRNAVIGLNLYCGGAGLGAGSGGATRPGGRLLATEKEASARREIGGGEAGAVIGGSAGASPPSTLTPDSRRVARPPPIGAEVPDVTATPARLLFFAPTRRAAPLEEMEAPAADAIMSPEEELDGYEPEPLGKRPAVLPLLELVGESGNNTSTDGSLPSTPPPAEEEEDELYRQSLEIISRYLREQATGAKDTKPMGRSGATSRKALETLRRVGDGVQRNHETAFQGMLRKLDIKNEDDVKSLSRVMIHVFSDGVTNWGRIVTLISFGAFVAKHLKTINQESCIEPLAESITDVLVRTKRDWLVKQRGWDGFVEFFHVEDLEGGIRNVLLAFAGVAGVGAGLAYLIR

| SMILES | rate of composite complete remission (CRc) and MRD response (MRD<10^−3) [1] [%] | relationship between venetoclax exposure (Cavg) and overall survival [2] | Ki (Mcl-1) [nM] |
| --- | --- | --- | --- |
| Nc1ncn([C@@H]2O[C@H](CO)[C@@H](O)[C@H]2O)c(=O)n1 [Aza, 4-amino-1-β-D-ribofuranosyl-s-triazin-2(1H)-one] | 7.6 | – | – |
| CC1(C)CCC(CN2CCN(c3ccc(C(=O)NS(=O)(=O)c4ccc(NCC5CCOCC5)c([N+](=O)[O-])c4)c(Oc4cnc5[nH]ccc5c4)c3)CC2)=C(c2ccc(Cl)cc2)C1 [venetoclax, 4-(4-{[2-(4-chlorophenyl)-4,4-dimethylcyclohex-1-en-1-yl]methyl}piperazin-1-yl)-N-({3-nitro-4-[(tetrahydro-2H-pyran-4-ylmethyl)amino]phenyl}sulfonyl)-2-(1H-pyrrolo[2,3-b]pyridin5-yloxy)benzamide] | – | no apparent relationship | > 444 |
